According to patent US20260159536A1, “AKR1C3-ACTIVATED DNA ALKYLATING AGENT, AND MEDICAL APPLICATION THEREOF” (ASCENTAWITS PHARMACEUTICALS, LTD., priority 2021, published 2026):
Where two headings read alike, the source gives them in different places.

Experiments:
[1] = Chiral stability under long-term and accelerated storage conditions; format: physicochemical
Procedure: Isomer stability under long-term and accelerated conditions was studied.
Compound A and isomers A-P1 and A-P2 were investigated for traits and isomeric stability at −20±5° C., 5° C.±3° C., 25° C.±2° C. (60%±5% RH) and 40° C.±2° C.

in vitro = conditions: for metabolite AST-2660 detection: from Compound A
Procedure: (1) Compound A for test, progesterone positive control, and 100 mM stock solutions of AST-3021 inhibitor were prepared and stored in the freezer (−10° C. to −30° C.).
1) Negative control group: at different time points (0 and 60 min), 30 μL/well of hepatocyte cytosol suspension containing 7.5 μM of sample for test was distributed in a 96-well plate. Three replicate wells were prepared in parallel.
2) Positive control group: at different time points (0, 5, 15, 30, 45 and 60 min), 30 μL/well of hepatocyte cytosol suspension containing 7.5 μM of the positive control was distributed in a 96-well plate. Three replicate wells were prepared in parallel.
3) Normal reaction group: at different time points (0, 5, 15, 30, 45 and 60 min), 30 μL/well of hepatocyte cytosol suspension containing 7.5 μM of sample for test was distributed in a 96-well plate. Three replicate wells were prepared in parallel.
4) Inhibition reaction group: at different time points (0, 5, 15, 30, 45 and 60 min), 30 μL/well of hepatocyte cytosol suspension containing […] of sample for test and 4.5 μM of the inhibitor was distributed in a 96-well plate. Three replicate wells were prepared in parallel.
6) 0 min samples: after 150 μL/well of acetonitrile containing the internal standard was added, then 15 μL/well of pre-heated NADPH working solution was added to the samples of normal reaction group, inhibition reaction group and positive control group, and 15 μL/well of pre-heated potassium phosphate buffer was added to the samples of negative control group.
7) Other samples (5, 15, 30, 45 and 60 min): for normal reaction group, inhibition reaction group and positive control group, 15 μL/well of pre-heated NADPH working solution was added to start the reaction; for negative control group, 15 μL/well of pre-heated potassium phosphate buffer was added. The reaction plates were then continued to incubate in a 37° C. water bath and the reactions were stopped by the addition of 150 μL/well of stop solution at the corresponding time points (5, 15, 30, 45 and 60 min).
The concentration of analyte in each sample was expressed as a peak area ratio (peak area analyte/peak areainternal standard), then the peak area ratio at 0 min was used as a reference to calculate the % Remaining at each time point of the incubation, and the ln logarithmic value of the % Remaining was linearly fitted to the incubation time and the half-life was calculated according to the following formula.
In the absence of AST-3021, 5 μM of progesterone was co-incubated with 2 mM of NADPH and 1 mg/mL of hepatocyte cytosol for 0-60 min as a positive control.

[2] = system: HuPrime model GA6201 human gastric cancer; conditions: for Tumor volume: 60 mg/kg i.p.
Procedure: The test was divided into groups of the test drug Isocyclophosphamide 60 mg/kg group, the test drug AST-3424 5 mg/kg group, the test drug A compound 2.5 mg/kg and 5 mg/kg groups, and normal saline (pH 7.0-7.6) vehicle control group, a total of 5 groups, with 5 mice per group.
In the above dosing regimen, Isocyclophosphamide was designed based on the best dosing regimen with maximum safe dosage as recited in the document (Jessica D. Sun, Qian Liu, Dharmendra Ahluwalia, Damien J. Ferraro, Yan Wang, Don Jung, Mark D. Matteucci, and Charles P. Hart. Comparison of hypoxia-activated prodrug evofosfamide (TH-302) and ifosfamide in preclinical non-small cell lung cancer models [J]. Cancer Biology & Therapy, 2016, 17(4): 371-380).

[3] = 25° C. ± 2° C./60% ± 5% RH, 1 month
[4] = 25° C. ± 2° C./60% ± 5% RH, 3 months
[5] = 40° C. ± 2° C./75% ± 5% RH, 1 month
[6] = 60 mg/kg i.p. 5 days on, 2 days off, 2 weeks, Day 38

O=[N+]([O-])c1ccc(C(OP(=O)(N2CC2)N2CC2)C(F)(F)F)cc1Oc1ccc(-c2ccc(F)cc2)c(F)c1 (single isomer, unassigned) [A-P1]
Isomer peak A-P1 ([1]; 0 month): 99.92% | Isomer peak A-P2 ([1]; 0 month): 0.08% | Isomer peak A-P1 ([1]; 5° C. ± 3° C., 1 month): 99.92% | Isomer peak A-P2 ([1]; 5° C. ± 3° C., 1 month): 0.08% | Isomer transformation ([1]; 5° C. ± 3° C., 1 month): 0.00% | Isomer peak A-P1 ([1]; 5° C. ± 3° C., 3 months): 99.92% | Isomer peak A-P2 ([1]; 5° C. ± 3° C., 3 months): 0.08% | Isomer transformation ([1]; 5° C. ± 3° C., 3 months): 0.00% | Isomer peak A-P1 [1, 3]: 99.92% | Isomer peak A-P2 [1, 3]: 0.08% | Isomer transformation [1, 3]: 0.00% | Isomer peak A-P1 [1, 4]: 99.92% | Isomer peak A-P2 [1, 4]: 0.08% | Isomer transformation [1, 4]: 0.00% | Isomer peak A-P1 [1, 5]: 99.91% | Isomer peak A-P2 [1, 5]: 0.09% | Isomer transformation [1, 5]: 0.01% | colour and chirality after storage ([1]; −20° C., 5° C., 25° C./60% RH 3 months, 40° C./75% RH 1 month): essentially no change | Isomer peak A-P1 ([1]; −20 ± 5° C., 3 months): 99.92% | Isomer peak A-P2 ([1]; −20 ± 5° C., 3 months): 0.08% | Isomer transformation ([1]; −20 ± 5° C., 3 months): 0.00%

O=P(O)(N1CC1)N1CC1 [AST-2660]
metabolite AST-2660 detection (in vitro; human, no NADPH, no AST-3021): not detected | metabolite AST-2660 detection (in vitro; human, with NADPH): a small amount | metabolite AST-2660 detection (in vitro; human, with NADPH and AST-3021): not detected | metabolite AST-2660 detection (in vitro; monkey, no NADPH, no AST-3021): not detected | metabolite AST-2660 detection (in vitro; monkey, with NADPH): a small amount | metabolite AST-2660 detection (in vitro; monkey, with NADPH and AST-3021): detected in only one monkey 60-min sample | metabolite AST-2660 detection (in vitro; mouse, no NADPH, no AST-3021): not detected | metabolite AST-2660 detection (in vitro; mouse, with NADPH): not detected | metabolite AST-2660 detection (in vitro; mouse, with NADPH and AST-3021): not detected | metabolite AST-2660 detection (in vitro; rat, no NADPH, no AST-3021): not detected | metabolite AST-2660 detection (in vitro; rat, with NADPH): not detected | metabolite AST-2660 detection (in vitro; rat, with NADPH and AST-3021): not detected

O=P1(NCCCl)OCCCN1CCCl (centres unmarked) [Isocyclophosphamide, reference compound]
Relative tumor volume (x ± S) [2, 6]: 3.85 ± 0.63 | T/C (%) [2, 6]: 41.17% | TGI (%) [2, 6]: 58.83% | Tumor volume (x ± S) [2, 6]: 371.02 ± 75.96 | Tumor volume ([2]; 0 day): 94.15 mm^3 | Tumor volume ([2]; 3 days): 122.22 mm^3 | Tumor volume ([2]; 7 days): 129.39 mm^3 | Tumor volume ([2]; 10 days): 175.00 mm^3 | Tumor volume ([2]; 14 days): 190.74 mm^3 | Tumor volume ([2]; 17 days): 189.23 mm^3 | Tumor volume ([2]; 21 days): 217.96 mm^3 | Tumor volume ([2]; 24 days): 225.66 mm^3 | Tumor volume ([2]; 28 days): 247.04 mm^3 | Tumor volume ([2]; 31 days): 265.76 mm^3 | Tumor volume ([2]; 35 days): 324.51 mm^3 | Tumor volume ([2]; 38 days): 371.02 mm^3 | Tumor volume ([2]; 42 days): 403.47 mm^3 | Tumor volume ([2]; 45 days): 484.83 mm^3 | Tumor volume ([2]; 49 days): 578.60 mm^3

CC(=O)[C@H]1CC[C@H]2[C@@H]3CCC4=CC(=O)CC[C@]4(C)[C@H]3CC[C@]12C [Progesterone]
half-life at 5 µM (in vitro; CD-1, mouse, hepatocyte cytosol, Metabolic parameter t1/2, mouse, 2 mM NADPH, no AST-3021 (normal reaction / positive control group), 5 μM): 37.7 min | half-life at 5 µM (in vitro; SD, rat, hepatocyte cytosol, Metabolic parameter t1/2, rat, 2 mM NADPH, no AST-3021 (normal reaction / positive control group), 5 μM): 22.3 min | half-life at 5 µM (in vitro; cynomolgus (printed as 'machins'), monkey, cytosol): 13.2 min | Metabolic parameter k (in vitro; human, 2 mM NADPH, no AST-3021 (normal reaction / positive control group), 5 μM): 0.0543 | average % Remaining (in vitro; human, 2 mM NADPH, no AST-3021 (normal reaction / positive control group), 5 μM, 0 min): 100.00% | average % Remaining (in vitro; human, 2 mM NADPH, no AST-3021 (normal reaction / positive control group), 5 μM, 5 min): 80.76% | average % Remaining (in vitro; human, 2 mM NADPH, no AST-3021 (normal reaction / positive control group), 5 μM, 15 min): 55.69% | average % Remaining (in vitro; human, 2 mM NADPH, no AST-3021 (normal reaction / positive control group), 5 μM, 30 min): 20.59% | average % Remaining (in vitro; human, 2 mM NADPH, no AST-3021 (normal reaction / positive control group), 5 μM, 45 min): 7.72% | average % Remaining (in vitro; human, 2 mM NADPH, no AST-3021 (normal reaction / positive control group), 5 μM, 60 min): 0.46% | Metabolic parameter k (in vitro; monkey, 2 mM NADPH, no AST-3021 (normal reaction / positive control group), 5 μM): 0.0525 | average % Remaining (in vitro; monkey, 2 mM NADPH, no AST-3021 (normal reaction / positive control group), 5 μM, 0 min): 100.00% | average % Remaining (in vitro; monkey, 2 mM NADPH, no AST-3021 (normal reaction / positive control group), 5 μM, 5 min): 82.47% | average % Remaining (in vitro; monkey, 2 mM NADPH, no AST-3021 (normal reaction / positive control group), 5 μM, 15 min): 59.82% | average % Remaining (in vitro; monkey, 2 mM NADPH, no AST-3021 (normal reaction / positive control group), 5 μM, 30 min): 28.19% | average % Remaining (in vitro; monkey, 2 mM NADPH, no AST-3021 (normal reaction / positive control group), 5 μM, 45 min): 10.01% | average % Remaining (in vitro; monkey, 2 mM NADPH, no AST-3021 (normal reaction / positive control group), 5 μM, 60 min): 3.26% | Metabolic parameter k (in vitro; mouse, 2 mM NADPH, no AST-3021 (normal reaction / positive control group), 5 μM): 0.0184 | average % Remaining (in vitro; mouse, 2 mM NADPH, no AST-3021 (normal reaction / positive control group), 5 μM, 0 min): 100.00% | average % Remaining (in vitro; mouse, 2 mM NADPH, no AST-3021 (normal reaction / positive control group), 5 μM, 5 min): 89.61% | average % Remaining (in vitro; mouse, 2 mM NADPH, no AST-3021 (normal reaction / positive control group), 5 μM, 15 min): 78.52% | average % Remaining (in vitro; mouse, 2 mM NADPH, no AST-3021 (normal reaction / positive control group), 5 μM, 30 min): 62.61% | average % Remaining (in vitro; mouse, 2 mM NADPH, no AST-3021 (normal reaction / positive control group), 5 μM, 45 min): 44.84% | average % Remaining (in vitro; mouse, 2 mM NADPH, no AST-3021 (normal reaction / positive control group), 5 μM, 60 min): 31.03% | Metabolic parameter k (in vitro; rat, 2 mM NADPH, no AST-3021 (normal reaction / positive control group), 5 μM): 0.0311 | average % Remaining (in vitro; rat, 2 mM NADPH, no AST-3021 (normal reaction / positive control group), 5 μM, 0 min): 100.00% | average % Remaining (in vitro; rat, 2 mM NADPH, no AST-3021 (normal reaction / positive control group), 5 μM, 5 min): 84.80% | average % Remaining (in vitro; rat, 2 mM NADPH, no AST-3021 (normal reaction / positive control group), 5 μM, 15 min): 69.77% | average % Remaining (in vitro; rat, 2 mM NADPH, no AST-3021 (normal reaction / positive control group), 5 μM, 30 min): 45.51% | average % Remaining (in vitro; rat, 2 mM NADPH, no AST-3021 (normal reaction / positive control group), 5 μM, 45 min): 21.61% | average % Remaining (in vitro; rat, 2 mM NADPH, no AST-3021 (normal reaction / positive control group), 5 μM, 60 min): 4.70%
